Test results: patent publication US10501516B2, “Peptide compound” (TAKEDA PHARMACEUTICAL COMPANY LIMITED, priority 2016, dated 2019)
Square brackets hold non-standard residues; d marks the D form. Side chains are listed from the residue outwards. Peptide text beside a SMILES is read from it. * marks the point of attachment. C18 diacid = O=C(O)CCCCCCCCCCCCCCCCC(=O)*; Phe(2-F) = N[C@@H](Cc1ccccc1F)C(=O)O; NMeY = CN[C@@H](Cc1ccc(O)cc1)C(=O)O; Palmitoyl = CCCCCCCCCCCCCCCC(=O)*; αMeF = C[C@](N)(Cc1ccccc1)C(=O)O; Iva = CC[C@](C)(N)C(=O)O; Aib = CC(C)(N)C(=O)O

Tested on: male C57BL/6J mouse
Test: Evaluation of feeding suppressive action in mice
Type: in vivo
Conditions: 30 nmol/kg s.c. once a day for 3 days; 3-days cumulative food consumption vs solvent control
Protocol: The feeding suppressive activity of a test compound was examined by the method described below.
The test compound was dissolved at a concentration of 30 or 100 nmol/2 mL in a solvent (10% DMSO-containing physiological saline). The test compound solution was subcutaneously administered at a dose of 2 mL/kg to the back of each male C57BL/6J mouse at 8-9 weeks of age (20-26° C., allowed to take food and water ad libitum; raised in the 12-hour bright-12-hour dark cycle). The administration was performed once a day for 3 days. After the administration, the mouse was individually raised in a rearing cage, and given previously weighed food; food consumption for 3 days after the start of administration was measured. The food consumption was calculated by subtracting the amount of remaining food from the weight of the food given on the day of the start of administration. When the food consumption of a control group receiving administration of the solvent alone was regarded as a suppression rate of 0%, the feeding suppressive activity of each test compound was evaluated on the basis of 3-days cumulative food consumption after the start of administration. The food intake suppression rate (%) of the test compound was defined as (Food consumption of the control group−Food consumption of the test compound-administered group)/Food consumption of the control group×100.

Structure (SMILES)	Rate of feeding suppression (%)
CCCCCCCCCCCCCCCC(=O)NCC(=O)NCC(=O)NCC(=O)NCC(=O)NCCCC[C@H](NC(=O)[C@H](CC(=O)O)NC(=O)[C@H](CO)NC(=O)[C@@H](NC(=O)[C@](C)(Cc1ccccc1)NC(=O)[C@@H](NC(=O)CNC(=O)[C@H](CCC(=O)O)NC(=O)C(C)(C)NC(=O)[C@H](Cc1ccc(O)cc1)NC)[C@@H](C)O)[C@@H](C)O)C(=O)N[C@@H](C)C(=O)N[C@H](C(=O)NC(C)(C)C(=O)N[C@@H](CC(C)C)C(=O)N[C@@H](CCC(=O)O)C(=O)N[C@@H](CCCCN)C(=O)N[C@@H](CCC(N)=O)C(=O)N[C@@H](CCCNC(=N)N)C(=O)N[C@@H](CCC(N)=O)C(=O)N[C@@](C)(CC)C(=O)N[C@@H](CCC(=O)O)C(=O)N[C@@H](Cc1ccccc1)C(=O)N[C@H](C(=O)N[C@@H](CCCNC(=N)N)C(=O)N[C@@H](Cc1c[nH]cn1)C(=O)N[C@@H](CC(C)C)C(=O)N[C@@H](CC(C)C)C(=O)N[C@@H](CC(N)=O)C(=O)N[C@@H](CCCCN)C(=O)NC(C)(C)C(=O)N[C@H](C(=O)N[C@@H](CCCNC(=N)N)C(=O)N[C@@H](CCC(N)=O)C(=O)N[C@@H](CCCNC(=N)N)C(=O)N[C@@H](Cc1ccc(O)cc1)C(N)=O)[C@@H](C)O)C(C)C)[C@@H](C)CC [Example 37] (H-[NMeY][Aib]EGT[αMeF]TSDK([Gly-Gly-Gly-Gly-Palmitoyl])AI[Aib]LEKQRQ[Iva]EFVRHLLNK[Aib]TRQRY-NH2)	−54.9%
CCCCCCCCCCCCCCCC(=O)NCC(=O)NCC(=O)NCC(=O)NCC(=O)NCCCC[C@H](NC(=O)[C@H](CC(=O)O)NC(=O)[C@H](CO)NC(=O)[C@@H](NC(=O)[C@](C)(Cc1ccccc1)NC(=O)[C@@H](NC(=O)CNC(=O)[C@H](CCC(=O)O)NC(=O)C(C)(C)NC(=O)[C@@H](N)Cc1ccc(O)cc1)[C@@H](C)O)[C@@H](C)O)C(=O)NC(C)(C)C(=O)N[C@@H](CCCCN)C(=O)NC(C)(C)C(=O)N[C@@H](CC(C)C)C(=O)N[C@@H](CC(=O)O)C(=O)N[C@@H](CCCCN)C(=O)N[C@@H](CCC(N)=O)C(=O)N[C@@H](CCCNC(=N)N)C(=O)N[C@@H](CCC(N)=O)C(=O)N[C@@](C)(CC)C(=O)N[C@@H](CCC(=O)O)C(=O)N[C@@H](Cc1ccccc1)C(=O)N[C@H](C(=O)N[C@@H](CCCNC(=N)N)C(=O)N[C@@H](Cc1c[nH]cn1)C(=O)N[C@@H](CC(C)C)C(=O)N[C@@H](CC(C)C)C(=O)N[C@@H](CC(N)=O)C(=O)N[C@@H](CCCCN)C(=O)NC(C)(C)C(=O)N[C@H](C(=O)N[C@@H](CCCNC(=N)N)C(=O)N[C@@H](CCC(N)=O)C(=O)N[C@@H](CCCNC(=N)N)C(=O)N[C@@H](Cc1ccc(O)cc1)C(N)=O)[C@@H](C)O)C(C)C [Example 19] (H-Y[Aib]EGT[αMeF]TSDK([Gly-Gly-Gly-Gly-Palmitoyl])[Aib]K[Aib]LDKQRQ[Iva]EFVRHLLNK[Aib]TRQRY-NH2)	−37.0%
CC[C@H](C)[C@H](NC(=O)C(C)(C)NC(=O)[C@H](CCCCNC(=O)CNC(=O)CNC(=O)CNC(=O)CNC(=O)CCCCCCCCCCCCCCCCC(=O)O)NC(=O)[C@H](CC(=O)O)NC(=O)[C@H](CO)NC(=O)[C@@H](NC(=O)[C@](C)(Cc1ccccc1)NC(=O)[C@@H](NC(=O)CNC(=O)[C@H](CCC(=O)O)NC(=O)C(C)(C)NC(=O)[C@@H](N)Cc1ccc(O)cc1)[C@@H](C)O)[C@@H](C)O)C(=O)NC(C)(C)C(=O)N[C@@H](CC(C)C)C(=O)N[C@@H](CCC(=O)O)C(=O)N[C@@H](CCCCN)C(=O)N[C@@H](CCC(N)=O)C(=O)N[C@@H](CCCNC(=N)N)C(=O)N[C@@H](CCC(N)=O)C(=O)N[C@@](C)(CC)C(=O)N[C@@H](CCC(=O)O)C(=O)N[C@@H](Cc1ccccc1)C(=O)N[C@H](C(=O)N[C@@H](CCCNC(=N)N)C(=O)N[C@@H](Cc1c[nH]cn1)C(=O)N[C@@H](CC(C)C)C(=O)N[C@@H](CC(C)C)C(=O)N[C@@H](CC(N)=O)C(=O)N[C@@H](CCCCN)C(=O)NC(C)(C)C(=O)N[C@H](C(=O)N[C@@H](CCCNC(=N)N)C(=O)N[C@@H](CCC(N)=O)C(=O)N[C@@H](CCCNC(=N)N)C(=O)N[C@@H](Cc1ccc(O)cc1)C(N)=O)[C@@H](C)O)C(C)C [Example 32] (H-Y[Aib]EGT[αMeF]TSDK([Gly-Gly-Gly-Gly-C18 diacid])[Aib]I[Aib]LEKQRQ[Iva]EFVRHLLNK[Aib]TRQRY-NH2)	−51.0%
CCCCCCCCCCCCCCCC(=O)NCC(=O)NCC(=O)NCC(=O)NCC(=O)NCCCC[C@H](NC(=O)[C@H](CC(=O)O)NC(=O)[C@H](CO)NC(=O)[C@@H](NC(=O)[C@](C)(Cc1ccccc1)NC(=O)[C@@H](NC(=O)CNC(=O)[C@H](CCC(=O)O)NC(=O)C(C)(C)NC(=O)[C@@H](N)Cc1ccc(O)cc1)[C@@H](C)O)[C@@H](C)O)C(=O)N[C@@H](CO)C(=O)N[C@H](C(=O)NC(C)(C)C(=O)N[C@@H](CC(C)C)C(=O)N[C@@H](CC(=O)O)C(=O)N[C@@H](CCCCN)C(=O)N[C@@H](CCC(N)=O)C(=O)N[C@@H](CCCNC(=N)N)C(=O)N[C@@H](CCC(N)=O)C(=O)N[C@@](C)(CC)C(=O)N[C@@H](CCC(=O)O)C(=O)N[C@@H](Cc1ccccc1)C(=O)N[C@H](C(=O)N[C@@H](CCCNC(=N)N)C(=O)N[C@@H](Cc1c[nH]cn1)C(=O)N[C@@H](CC(C)C)C(=O)N[C@@H](CC(C)C)C(=O)N[C@@H](CC(N)=O)C(=O)N[C@@H](CCCCN)C(=O)NC(C)(C)C(=O)N[C@H](C(=O)N[C@@H](CCCNC(=N)N)C(=O)N[C@@H](CCC(N)=O)C(=O)N[C@@H](CCCNC(=N)N)C(=O)N[C@@H](Cc1ccc(O)cc1)C(N)=O)[C@@H](C)O)C(C)C)[C@@H](C)CC [Example 15] (H-Y[Aib]EGT[αMeF]TSDK([Gly-Gly-Gly-Gly-Palmitoyl])SI[Aib]LDKQRQ[Iva]EFVRHLLNK[Aib]TRQRY-NH2)	−41.2%
CCCCCCCCCCCCCCCC(=O)NCC(=O)NCC(=O)NCC(=O)NCC(=O)NCCCC[C@H](NC(=O)[C@H](CC(=O)O)NC(=O)[C@H](CO)NC(=O)[C@@H](NC(=O)[C@](C)(Cc1ccccc1)NC(=O)[C@@H](NC(=O)CNC(=O)[C@H](CCC(=O)O)NC(=O)C(C)(C)NC(=O)[C@@H](N)Cc1ccc(O)cc1)[C@@H](C)O)[C@@H](C)O)C(=O)NC(C)(C)C(=O)N[C@H](C(=O)NC(C)(C)C(=O)N[C@@H](CC(C)C)C(=O)N[C@@H](CC(=O)O)C(=O)N[C@@H](CCCCN)C(=O)N[C@@H](CCC(N)=O)C(=O)N[C@@H](C)C(=O)N[C@@H](CCC(N)=O)C(=O)N[C@@](C)(CC)C(=O)N[C@@H](CCC(=O)O)C(=O)N[C@@H](Cc1ccccc1)C(=O)N[C@H](C(=O)N[C@@H](CCCNC(=N)N)C(=O)N[C@@H](Cc1c[nH]cn1)C(=O)N[C@@H](CC(C)C)C(=O)N[C@@H](CC(C)C)C(=O)N[C@@H](CC(N)=O)C(=O)N[C@@H](CCCCN)C(=O)NC(C)(C)C(=O)N[C@H](C(=O)N[C@@H](CCCNC(=N)N)C(=O)N[C@@H](CCC(N)=O)C(=O)N[C@@H](CCCNC(=N)N)C(=O)N[C@@H](Cc1ccccc1F)C(N)=O)[C@@H](C)O)C(C)C)[C@@H](C)CC [Example 1] (H-Y[Aib]EGT[αMeF]TSDK([Gly-Gly-Gly-Gly-Palmitoyl])[Aib]I[Aib]LDKQAQ[Iva]EFVRHLLNK[Aib]TRQR[Phe(2-F)]-NH2)	−37.1%
CCCCCCCCCCCCCCCC(=O)NCC(=O)NCC(=O)NCC(=O)NCC(=O)NCCCC[C@H](NC(=O)[C@H](CC(=O)O)NC(=O)[C@H](CO)NC(=O)[C@@H](NC(=O)[C@](C)(Cc1ccccc1)NC(=O)[C@@H](NC(=O)CNC(=O)[C@H](CCC(=O)O)NC(=O)C(C)(C)NC(=O)[C@H](Cc1ccc(O)cc1)NC)[C@@H](C)O)[C@@H](C)O)C(=O)NC(C)(C)C(=O)N[C@H](C(=O)NC(C)(C)C(=O)N[C@@H](CC(C)C)C(=O)N[C@@H](CC(=O)O)C(=O)N[C@@H](CCCCN)C(=O)N[C@@H](CCC(N)=O)C(=O)N[C@@H](C)C(=O)N[C@@H](CCC(N)=O)C(=O)N[C@@](C)(CC)C(=O)N[C@@H](CCC(=O)O)C(=O)N[C@@H](Cc1ccccc1)C(=O)N[C@H](C(=O)N[C@@H](CCCNC(=N)N)C(=O)N[C@@H](Cc1c[nH]cn1)C(=O)N[C@@H](CC(C)C)C(=O)N[C@@H](CC(C)C)C(=O)N[C@@H](CC(N)=O)C(=O)N[C@@H](CCCCN)C(=O)NC(C)(C)C(=O)N[C@H](C(=O)N[C@@H](CCCNC(=N)N)C(=O)N[C@@H](CCC(N)=O)C(=O)N[C@@H](CCCNC(=N)N)C(=O)N[C@@H](Cc1ccc(O)cc1)C(N)=O)[C@@H](C)O)C(C)C)[C@@H](C)CC [Example 29] (H-[NMeY][Aib]EGT[αMeF]TSDK([Gly-Gly-Gly-Gly-Palmitoyl])[Aib]I[Aib]LDKQAQ[Iva]EFVRHLLNK[Aib]TRQRY-NH2)	−43.7%
